Article PMC9161444, “In-Membrane Nanostructuring of Cationic Amphiphiles Affects Their Antimicrobial Efficacy and Cytotoxicity: A Comparison Study between a De Novo Antimicrobial Lipopeptide and Traditional Biocides” (Langmuir, 2022)
“And” between values parts separate entries of the source, which are not always exact repeats. Equal entries are not always repeated.

What was measured:
E. coli (ATCC 25922) = assay type: cell-based, Escherichia coli; conditions: for MIC/CAC, converted data, E. coli: MIC divided by the amphiphile's CAC; for MIC, E. coli: microdilution, serial half-dilution in PBS, Mueller Hinton broth, 37 °C, 24 h, 10^6 CFU/mL, by eye and OD600, ± SD, at least three replicates
Protocol: (§1) E. coli (ATCC 25922), S. aureus (ATCC 6538), and C. albicans SC5314 (ATCC MYA-2876) were purchased from the American Type Culture Collection (ATCC). The two bacterial strains, E. coli and S. aureus, were cultured in Mueller Hinton broth at 37 °C; while the yeast strain, C. albicans, was grown in RPMI 1640 medium at 30 °C. The microdilution method was employed to determine MICs of the amphiphiles against the microorganism strains listed above.[21] Solutions of lipopeptides and biocides were half-diluted serially in 96-well plates using PBS buffer containing 137 mM NaCl, 2.7 mM KCl, 8.1 mM Na2HPO4, and 1.9 mM KH2PO4 for E. coli and S. aureus and using RPMI 1640 for C. albicans. Overnight incubations of the strains, in each respective growth medium, were then inoculated into each well, giving final concentrations of 10^6 CFU/mL for E. coli and S. aureus and 10^5 CFU/mL for C. albicans. Culture media without microorganisms and amphiphiles were employed as positive controls, while fresh microorganism cultures without amphiphiles were used as negative controls. Each plate has both positive controls and negative controls. The plates were then incubated at an appropriate temperature (stated above) for 24 h for the bacterial strains and 48 h for the yeast strain. MICs of each sample were first determined by eye. A more quantitative analysis was carried out by measuring optical densities at 600 nm (OD600) of each well using a Sunrise absorbance microplate reader (Tecan Group Ltd.). Inhibitory ratios (IRs) of each sample at a given concentration against a specific strain, denoted as IRi, were calculated by IRi = (OD600,negative control – OD600,i)/(OD600,negative control – OD600,positive control) × 100%. All experiments were repeated at least three times with each group containing three replicates. To better analyze concentration–IR relationships, sigmoidal function fittings were employed to generate the best fitted dose response curve for each situation.

[1] = system: C. albicans SC5314 (ATCC MYA-2876); assay type: cell-based, Candida albicans; conditions: for MIC/CAC, converted data, C. albicans: MIC divided by the amphiphile's CAC; for MIC, C. albicans: microdilution in RPMI 1640, 30 °C, 48 h, 10^5 CFU/mL, by eye and OD600, ± SD, at least three replicates
Protocol: as §1

[2] = system: Human dermal fibroblasts cells (adult, HDFa cells); assay type: cell-based; conditions: MTT assay, 24 h exposure, 37 °C, absorbance 570 nm, sigmoidal fit; ± SD, at least three replicates; read-out: EC50, HDFa
Protocol: Human dermal fibroblasts cells (adult, HDFa cells) and NIH 3T3 fibroblasts cells (3T3 cells, ATCC-1658) were cultured at 37 °C in Dulbecco’s modified Eagle medium (ATCC30-2002, added with 10% heat-inactivated fetal bovine serum) with a continuous supply of CO2 at a 5% level. MTT assays were carried out to examine in vitro cytotoxicity of the amphiphiles.[22] Cells were first inoculated in flat-bottom 96-well plates, rendering 8 × 10^3 cells in 100 μL of medium for each well, and were incubated for 24 h. The cells were mixed with 100 μL of a solution of an amphiphile with 2 times the selected concentrations. Cells were then exposed to the solutions of each amphiphile for 24 h, after which 10 μL of 5 mg/mL MTT solution was added into each well, and the reaction was allowed for 2 h. 200 μL of dimethyl sulfoxide was then added to each well to dissolve the transformed MTT formazan. Light absorbance of the samples was measured using a Thermo Scientific Varioskan LUX at 570 nm. Cell samples 100% viable and 100% dead were employed as the positive control and negative control, respectively. Dose response curves were obtained by applying sigmoidal function fittings to obtain 50% effective concentrations (EC50).

[3] = Neutron reflectivity of amphiphile binding to lipid monolayer; conditions: C14KKGGII 5 μM, C14TAB 2.5 μM, C12TAB 75 μM; for Γamphiphile, amount bound to DPPC monolayer / Γamphiphile, amount bound to DPPG monolayer: monolayer at 28 mN/m; for DPPG lipid removed from monolayer: NR
Protocol: Single-component lipid monolayer models in a Langmuir trough (12.5 cm × 15 cm, Nima Technology Ltd., UK) were employed to investigate interactions between amphiphiles and lipids. The trough was filled with 70 mL of PBS at room temperature to provide a physiological environment.[23]−[25] Saturated head-charged lipid DPPG and saturated zwitterionic DPPC monolayers, mimicking negatively charged microbial membranes and mammalian cell membranes, respectively, were formed, and their interactions with amphiphiles were controlled by injecting each amphiphile carefully from outside the trough barrier. The lipids were dissolved in a chloroform/methanol mixture (v/v 9:1) to form the spreading solution. The lipid monolayer was spread by dripping the lipid solution onto the surface of the PBS solution. Following stabilization of the surface pressure, three cycles of isothermal compression and expansion were carried out to make the monolayer homogeneous. The surface was controlled at an initial pressure of 28 mN/m to mimic the static pressure within cell membranes. The final concentration of the amphiphile after injection was 1/40 of its CAC value for C14TAB, while the final concentration was 3/40 CAC for C12TAB because of its relatively higher MICs. Surface pressure changes with time following the injection process were recorded and analyzed.
Monolayer models described above were characterized using neutron reflectivity (NR) to measure the component distribution normal to the air/liquid interface. Measurements were performed on the SURF reflectometer at the ISIS Neutron and Muon Source (STFC Rutherford Appleton Laboratory, Didcot, UK).[23]−[25] The instrument provided a momentum transfer (Q) range from 0.01 to 0.5 Å^–1 [Q = […], where λ is the wavelength of the incoming neutron beam and θ is the incident angle]. At the start of the NR measurements, the reflectivity of the air/D2O interface was used for instrument calibration. Monolayers were prepared on the beamline. For each interaction, different isotopic contrasts were examined by applying chain-deuterated or fully hydrogenated versions of lipids (d62-DPPG, DPPG, d62-DPPC, and DPPC, denoted as dDPPG, hDPPG, dDPPC, and hDPPC, respectively) on the surface of PBS in D2O or null reflecting water (NRW, H2O/D2O = 91.9%/8.1%, v/v) and injecting deuterated or protonated versions of amphiphiles (C14KKGGII, dC14KKGGII, C12TAB, dC12dTAB, and C14TAB, denoted as hC14KKGGII, dC14KKGGII, hC12TAB, dC12TAB, and hC14TAB, respectively) from underneath the lipid monolayer outside the trough barrier bar. Reflectivity profiles from lipid monolayers were scanned before amphiphile injection to ensure good monolayer reproducibility. Raw data were reduced using Mantid software, and the resultant NR profiles were fitted via the least squares method using a Motofit package on Igor 6, where a multilayer model was employed in the analysis. The thickness and scattering length density (SLD, Nb) of each layer, that is, lipid tail region, lipid head region, and lipopeptide region, were fitted to the data. The SLD of each layer is related to the volume fractions of its components and could be calculated using Nb = ∑iφiNbi, where i denotes each component, for example, the solvent, lipid tails, lipid heads, lipopeptides’ acyl chains, and lipopeptides’ amino acids, and φi represents the volume fraction of component i and is constrained by ∑iφi = 1 in each layer. More details about the division of the molecular head/tail groups and relevant fitting parameters can be found in Figure S3 and Tables S3 and S4.

SMILES | MIC/CAC, converted data, E. coli (E. coli (ATCC 25922)) | MIC, E. coli (E. coli (ATCC 25922)) | MIC/CAC, converted data, C. albicans [1] | MIC, C. albicans [1] | EC50 [2] | Γlipid, DPPC remaining on the surface after amphiphile binding ([3]; NR best fit, DPPC monolayer at 28 mN/m, 3.08 ± 0.08 before) | Γlipid, DPPG remaining on the surface after amphiphile binding ([3]; NR best fit, DPPG monolayer at 28 mN/m, 3.35 ± 0.01 before) | Γamphiphile, amount bound to DPPC monolayer ([3]; NR best fit) | Γamphiphile, amount bound to DPPG monolayer ([3]; NR best fit) | DPPG lipid removed from monolayer [3]
CCCCCCCCCCCC[N+](C)(C)C.[Br-] [C12TAB, dodecyltrimethylammonium bromide] | 0.20 ± 0.04 | 200 ± 40 µM | 0.10 ± 0.03 | 100 ± 30 µM | 17 ± 5 µM | 2.55 ± 0.01 μmol/m^2 | 2.70 ± 0.20 μmol/m^2 | 0.98 ± 0.02 μmol/m^2 | 1.51 ± 0.01 μmol/m^2 | 22%
CCCCCCCCCCCCCC[N+](C)(C)C.[Br-] [C14TAB, tetradecyltrimethylammonium bromide] | 1 and 1.00 ± 0.30 | 100 ± 30 µM | 0.12 ± 0.02 | 12 ± 2 µM | 7 ± 3 µM |  |  | 1.10 ± 0.01 μmol/m^2 | 1.43 ± 0.02 μmol/m^2 | 19%
